Results on six compounds are retold here after US20240109898A1, “SUBSTITUTED PYRAZOLO[1,5-A]PYRIMIDINE-7-AMINE DERIVATIVES, COMPOSITIONS AND PHARMACEUTICAL USES THEREOF” (SHANGHAI HAIYAN PHARMACEUTICAL TECHNOLOGY CO., LTD., priority 2021, published 2024).

The target in the first series is CDK9/CycT (Homo sapiens (Human), UniProt P50750). The experiment in a line: LANCE Ultra kinase activity inhibition assay, CDK9/CycT. The series is classed as biochemical. As to conditions: ATP 10 μM, highest compound concentration 1 μM. The procedure: (§1) In the following LANCE Ultra test methods, kinase reagents were purchased from Carna Bioscience, reaction substrates and detection reagents were purchased from PerkinElmer, and the remaining reagents were purchased from Thermo scientific.
Sequence of CDK9/CycT (P50750 whole entry): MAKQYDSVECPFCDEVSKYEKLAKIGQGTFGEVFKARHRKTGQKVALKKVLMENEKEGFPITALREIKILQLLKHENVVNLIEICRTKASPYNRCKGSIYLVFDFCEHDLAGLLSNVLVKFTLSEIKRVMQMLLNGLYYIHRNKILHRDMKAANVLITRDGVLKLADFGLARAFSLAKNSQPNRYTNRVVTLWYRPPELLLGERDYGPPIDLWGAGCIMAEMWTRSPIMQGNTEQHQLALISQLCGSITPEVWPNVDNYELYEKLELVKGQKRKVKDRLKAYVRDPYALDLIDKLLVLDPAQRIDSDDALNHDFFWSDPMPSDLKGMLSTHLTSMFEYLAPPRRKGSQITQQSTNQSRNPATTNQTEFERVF
Sequence of CDK9/CycT (O60563 whole entry partner): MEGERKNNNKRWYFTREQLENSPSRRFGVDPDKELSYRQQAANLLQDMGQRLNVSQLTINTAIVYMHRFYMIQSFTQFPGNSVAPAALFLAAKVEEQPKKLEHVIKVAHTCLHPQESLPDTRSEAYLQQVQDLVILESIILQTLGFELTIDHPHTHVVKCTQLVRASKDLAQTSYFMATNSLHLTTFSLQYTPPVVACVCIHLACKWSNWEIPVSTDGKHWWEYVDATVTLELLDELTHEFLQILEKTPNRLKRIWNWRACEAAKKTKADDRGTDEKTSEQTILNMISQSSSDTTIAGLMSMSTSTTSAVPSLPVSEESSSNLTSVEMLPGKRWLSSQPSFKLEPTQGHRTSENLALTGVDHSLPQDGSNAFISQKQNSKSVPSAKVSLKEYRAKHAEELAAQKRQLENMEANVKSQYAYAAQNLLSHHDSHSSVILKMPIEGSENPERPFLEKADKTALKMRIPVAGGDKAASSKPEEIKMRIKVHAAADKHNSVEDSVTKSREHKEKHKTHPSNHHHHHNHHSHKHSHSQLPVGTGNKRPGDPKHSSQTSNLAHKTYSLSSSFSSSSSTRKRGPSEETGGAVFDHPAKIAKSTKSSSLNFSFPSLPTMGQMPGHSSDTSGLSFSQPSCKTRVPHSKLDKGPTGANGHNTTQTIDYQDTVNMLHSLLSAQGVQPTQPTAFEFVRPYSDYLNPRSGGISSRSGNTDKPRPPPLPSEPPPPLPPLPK
The inhibiting effects on the kinase activity of CDK1/CycB (Carna bioscience, #04-102), CDK2/CycA (Carna bioscience, #04-103) and CDK9/CycT (Carna bioscience, #04-110) were determined by using LANCE Ultra method.
The kinase activity test was performed using a system (10 μL) containing the following components: substrate diluent prepared by mixing CDK kinase diluent, Ulight-Myelic basic protein (Perkin Elmer, #TRF-0109, hereinafter referred to as U-MBP) and ATP (Thermo scientific, #PV3227); and the compounds (i.e., analyte) prepared in the examples of the present disclosure. The assay for each kinase includes three test groups, i.e., a background group (Blank), a non-inhibition group (PC), and compound testing group (Test). The components included in each test group were as follows:
(§2) Working concentrations of the respective components of the Test groups in different kinase reactions were as follows.
(§3) Compounds: 10 mM of the compound to be tested was dissolved at room temperature and diluted with DMSO to gradient concentrations, followed by diluting with deionized water to prepare a 4× working solution of the compound, and the content of DMSO was 2%. The highest concentration of compound used in the CDK1 and CDK2 assays was 10 μM, and that in CDK9 assay was 1 μM.
1.33×reaction buffer: the components include 26.7 mM of MOPS, 6.67 mM of MgCl2, and 0.0133% Tween-20, which were stored in a 4° C. refrigerator and protected from light after preparation. Freshly prepared DTT was added to a final concentration of 5.33 mM before use.
(§4) The working concentration of DMSO in the reaction was 0.5%.
(§5) The above-mentioned components, after being mixed, were placed on a shaker and incubated at room temperature in the dark for 1 h. 10 μL of test solution was then added to all test groups (including Blank, PC and Test groups).
10 μL of test solution contains the following components: 16 mM of EDTA (Thermo scientific, #15575), 1 nM of phosphorylated U-MBP protein antibody (Perkin Elmer, #TRF-0201), and 1× detection damping fluid (Perkin Elmer, #CR97-100).
After the test solution was added, the solution was placed on a shaker and continually incubated at room temperature for 1 h in the dark. At the end of incubation, Victor X5 fluorescence microplate reader of Perkin Elmer was used to read the signal; the wavelength of excitation light was 320 nm, and the wavelengths of emission light were 615 nm and 665 nm. The inhibition rate was calculated as below.
1. For all groups, a value of 665 nm/615 nm (hereinafter referred to as Ratio) was calculated, and an inhibition rate was calculated based on the Ratio of each group;
(§6) 2. Inhibition rate=(PCRatio-TestRatio)/(PCRatio-BlankRatio)*100%; and
(§7) 3. XLFIT 5.0 software (IDBS, UK) was used to fit a graph by using the logarithmic value of the compound concentration as the X-axis and the inhibition rater as the Y-axis, and a four-parameter model was used to calculate the half inhibitory concentration IC50 of the compound.
`Cc1cnn2c(N[C@H]3CC[C@H](N)C3)cc([C@@H](C)C3CC3)nc12` [Compound Z-32-P2]: the half-maximal inhibitory concentration (IC50) came to 0.056 µM.
On the same count and under the same terms, in the case of `C[C@H](c1cc(N[C@H]2C[C@H](N)C2)n2nccc2n1)C1CC1` [Compound Z-62-P1] it was 0.01 µM.
In turn, `Cc1cnn2c(N[C@H]3CC[C@H](N)C3)cc(C(C3CC3)C3CC3)nc12` [Compound Z-9] came in with an IC50 of 0.008 µM.
Consider `C[C@H](c1cc(N[C@H]2CC[C@H](N)C2)n2nccc2n1)C1CC1` [Compound Z-5-2], for which inhibition was half-maximal at 0.007 µM (IC50).
Same read-out and setting: the figure for `CC(=N)N[C@H]1CC[C@H](Nc2cc(C(C3CC3)C3CC3)nc3c(Cl)cnn23)C1` [Compound Z-66] is 0.018 µM.
Compound `CC(c1cc(N[C@H]2CC[C@H](NC(=N)N)C2)n2ncc(F)c2n1)C1CC1` (stereo partly shown) [Compound Z-71] showed a half-maximal inhibitory concentration (IC50) of 0.028 µM.

The target in another series is CDK1/CycB (Homo sapiens (Human), UniProt P06493). The experiment in a line: LANCE Ultra kinase activity inhibition assay, CDK1/CycB. The series is classed as biochemical. The note with it: ATP 4 μM, highest compound concentration 10 μM.
Sequence of CDK1/CycB (P06493 whole entry): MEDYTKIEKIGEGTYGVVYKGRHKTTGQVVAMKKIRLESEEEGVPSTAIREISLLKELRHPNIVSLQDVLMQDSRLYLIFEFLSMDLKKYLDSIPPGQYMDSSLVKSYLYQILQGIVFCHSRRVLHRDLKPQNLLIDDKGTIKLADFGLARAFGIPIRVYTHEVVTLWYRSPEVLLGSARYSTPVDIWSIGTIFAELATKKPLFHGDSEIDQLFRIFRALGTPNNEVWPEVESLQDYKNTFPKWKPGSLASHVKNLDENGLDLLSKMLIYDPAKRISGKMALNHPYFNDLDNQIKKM
Sequence of CDK1/CycB (P14635 whole entry partner): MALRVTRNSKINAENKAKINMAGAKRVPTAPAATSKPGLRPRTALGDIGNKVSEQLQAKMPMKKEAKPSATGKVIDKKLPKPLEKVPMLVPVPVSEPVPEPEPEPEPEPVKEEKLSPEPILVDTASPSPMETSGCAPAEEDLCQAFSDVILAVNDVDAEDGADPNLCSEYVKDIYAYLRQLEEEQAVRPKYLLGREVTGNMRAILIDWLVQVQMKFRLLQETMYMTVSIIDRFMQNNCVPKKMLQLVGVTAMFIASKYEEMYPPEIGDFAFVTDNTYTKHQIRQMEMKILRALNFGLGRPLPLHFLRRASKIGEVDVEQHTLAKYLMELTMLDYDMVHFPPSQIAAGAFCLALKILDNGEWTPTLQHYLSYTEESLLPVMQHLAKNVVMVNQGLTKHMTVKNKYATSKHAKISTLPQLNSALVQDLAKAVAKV
Description: as §1
(§8) The assay for each kinase includes three test groups, i.e., a background group (Blank), a non-inhibition group (PC), and compound testing group (Test). The components included in each test group were as follows:
as §2, §3, §4, §5
(§9) After the test solution was added, the solution was placed on a shaker and continually incubated at room temperature for 1 h in the dark. […] The inhibition rate was calculated as below.
as §6, §7
In turn, `Cc1cnn2c(N[C@H]3CC[C@H](N)C3)cc([C@@H](C)C3CC3)nc12` [Compound Z-32-P2] had an IC50 of 8.22 µM.
Still for that read-out and setting: in the case of `C[C@H](c1cc(N[C@H]2C[C@H](N)C2)n2nccc2n1)C1CC1` [Compound Z-62-P1] it was 1.71 µM; in that of `Cc1cnn2c(N[C@H]3CC[C@H](N)C3)cc(C(C3CC3)C3CC3)nc12` [Compound Z-9], 1.04 µM; in that of `CC(=N)N[C@H]1CC[C@H](Nc2cc(C(C3CC3)C3CC3)nc3c(Cl)cnn23)C1` [Compound Z-66], 0.995 µM.
`CC(c1cc(N[C@H]2CC[C@H](NC(=N)N)C2)n2ncc(F)c2n1)C1CC1` (stereo partly shown) [Compound Z-71] registered a half-maximal inhibitory concentration (IC50) of 1.88 µM.

Another series has as its target CDK2/CycA (Homo sapiens (Human), UniProt P24941). The experiment in a line: LANCE Ultra kinase activity inhibition assay, CDK2/CycA. The series is classed as biochemical. The note with it: ATP 10 μM, highest compound concentration 10 μM.
Description: as §1, §8, §2, §3, §4, §5, §9, §6, §7
On to `Cc1cnn2c(N[C@H]3CC[C@H](N)C3)cc([C@@H](C)C3CC3)nc12` [Compound Z-32-P2], for which the IC50 worked out at 6.82 µM.
Still for that read-out and setting: the figure for `C[C@H](c1cc(N[C@H]2C[C@H](N)C2)n2nccc2n1)C1CC1` [Compound Z-62-P1] is 1.97 µM; for `Cc1cnn2c(N[C@H]3CC[C@H](N)C3)cc(C(C3CC3)C3CC3)nc12` [Compound Z-9] it is 1.55 µM; for `CC(=N)N[C@H]1CC[C@H](Nc2cc(C(C3CC3)C3CC3)nc3c(Cl)cnn23)C1` [Compound Z-66] it is 0.332 µM.
Still for that read-out and setting: in the case of `CC(c1cc(N[C@H]2CC[C@H](NC(=N)N)C2)n2ncc(F)c2n1)C1CC1` (stereo partly shown) [Compound Z-71] it was 4.53 µM.

Tested on in a further series: not listed separately
The experiment in a line: In vivo pharmacokinetics in mice. The note with it: mouse, plasma, po; male ICR mice, intragastric 10 mg/kg; read-out: Area under the oral curve AUC0-t. As for the experimental part:
To investigate the pharmacokinetic behaviors of the compounds according to the present disclosure in mice and evaluate the pharmacokinetic characteristics thereof, the plasma concentrations of the compounds according to the present disclosure in mice at different time points after intravenous injection and intragastric administration of the compounds were determined by LC/MS/MS.
Experimental Protocol: • Experimental animals: healthy adult male ICR mice (12 mice with body weight of 30-40 g, free water and diet for intravenous injection group, and fasted overnight for intragastric administration group, free water and diet after 4 hours of administration) were provided by Beijing Vital River Laboratory Animal Co. LTD; • Administration route and dosage: the ICR mice were administrated intravenously via the tail vein (2 mg/kg, 5% DMSO, pH 4.5 20% Captisol) and intragastrically (10 mg/kg, 5% DMSO, pH 4.5 20% Captisol).
Blood sample collection: prior to the administration, animals satisfying the experimental requirements were selected, weighed and marked. Before collecting blood samples, the mice were tied together, and the blood of each administrated mouse was collected at the respective scheduled time points (for the intravenous administration, the blood was collected at 0.083 h, 0.25 h, 0.5 h, 1 h, 2 h, 4 h, 6 h, 7.5 h, and 24 h after the administration, respectively, for a total of 9 time points; for the intragastric administration, the blood was collected at 0.083 h, 0.25 h, 0.5 h, 1 h, 2 h, 4 h, 6 h, 7.5 h, and 24 h after the administration, respectively, for a total of 9 time points), about 100 μL of blood was collected from orbit. The blood was transferred to a 1.5 mL tube, which was pre-filled with K2EDTA, centrifuged for 4 minutes (8000 rpm, 4° C.), and the plasma removed within 15 minutes, which all the steps were finished in 15 minutes after the collection of blood samples. All samples were stored in −20° C. refrigerator before sample analysis. The drug concentrations were determined using the LC/MS/MS method, the pharmacokinetic parameters of the compounds of some examples of the present disclosure in mice at the same dosage and administration routes were lists in Table 3: […]
As to `Cc1cnn2c(N[C@H]3CC[C@H](N)C3)cc([C@@H](C)C3CC3)nc12` [Compound Z-32-P2], the AUC(0-t) turned out to be 9410 ng·h/mL.
Regarding `C[C@H](c1cc(N[C@H]2C[C@H](N)C2)n2nccc2n1)C1CC1` [Compound Z-62-P1], the AUC(0-t) worked out at 2060 ng·h/mL.
For the compound `Cc1cnn2c(N[C@H]3CC[C@H](N)C3)cc(C(C3CC3)C3CC3)nc12` [Compound Z-9], the AUC(0-t) turned out to be 7860 ng·h/mL.
As to `C[C@H](c1cc(N[C@H]2CC[C@H](N)C2)n2nccc2n1)C1CC1` [Compound Z-5-2], the AUC(0-t) turned out to be 1700 ng·h/mL.

The same series, now with this note: mouse, plasma, po; male ICR mice, intragastric 10 mg/kg; read-out: Oral maximum plasma concentration Cmax(ng/mL).
As for `Cc1cnn2c(N[C@H]3CC[C@H](N)C3)cc([C@@H](C)C3CC3)nc12` [Compound Z-32-P2], the Cmax is 696 ng/mL.
Still for that read-out and setting: the figure for `C[C@H](c1cc(N[C@H]2C[C@H](N)C2)n2nccc2n1)C1CC1` [Compound Z-62-P1] is 786 ng/mL.
With `Cc1cnn2c(N[C@H]3CC[C@H](N)C3)cc(C(C3CC3)C3CC3)nc12` [Compound Z-9], the Cmax worked out at 740 ng/mL.
On the same count and under the same terms, the figure for `C[C@H](c1cc(N[C@H]2CC[C@H](N)C2)n2nccc2n1)C1CC1` [Compound Z-5-2] is 690 ng/mL.

The subject of another series is MV4-11 acute myeloid leukemia xenografts. The series is described as follows: In vivo pharmacodynamic assay, MV4-11 subcutaneous xenograft. As to conditions: Table 5; 5 mpk, oral, once a day. More on the design: species or system BALB/c nude mice. The procedure: In vivo pharmacodynamic assays were performed on (CDX)BALB/c nude mice implanted subcutaneously with MV4-11 acute myeloid leukemia […] xenografts derived from human tumor cell lines.
Experimental protocol: BALB/c nude mice, female, 6-10 weeks old, with weight of approximately 20-23 grams, were maintained in a specific pathogen-free environment, 5 mice in each cage, and 2 cages with 10 mice as one group. All the cages, bedding and water were disinfected before use. All animals had free access to a standard certified commercial laboratory diet. […] Each mouse was implanted subcutaneously with tumor cells (1×10^7 0.1 ml+Matrigel 0.1 ml) in the right flank for tumor growth. When the mean tumor volume reached approximately 165 mm^3, the tumors were randomly grouped according to body weight and tumor volume, and the administration of the compounds began. Test compounds were administered via oral gavage daily. Antitumor efficacy was determined by dividing the mean tumor volume increase of the animals treated with the compound by the mean tumor volume increase of untreated animals.
Tumor volumes were measured twice a week with two-dimensional calipers, and volumes were measured in cubic millimeters. Tumor volume TV=0.5a×b^2, where a represent a long diameter of the tumor and b represents a short diameter of the tumor.
Relative tumor proliferation rate T/C (%), i.e., a percentage value of relative tumor volume of treatment group to relative tumor volume of control group at a certain time point, can be calculated based on an equation of T/C %=TRTV/CRTV×100 (TRTV: mean RTV in treatment group; CRTV: mean RTV in solvent control group; RTV=Vt/V0, V0 being the tumor volume of the animal at the time of grouping, Vt being the tumor volume of the animal after treatment).
Body weight change (%) of tumor-bearing animals was calculated as follows:
(weight at measurement−weight at grouping)/weight at grouping×100.
Turning to `C[C@H](c1cc(N[C@H]2CC[C@H](N)C2)n2nccc2n1)C1CC1` [Compound Z-5-2], the “Average tumor weight” value amounted to 0.72 g and the “T/C(%)” value amounted to 59.25%.

Staying with this series, now noted: Table 5; 10 mpk, oral, once a day.
Consider `C[C@H](c1cc(N[C@H]2CC[C@H](N)C2)n2nccc2n1)C1CC1` [Compound Z-5-2], for which the “Average tumor weight” value stood at 0.04 g and the “T/C(%)” value was determined as 3.45%.
